The results in this text go back to ChEMBL document CHEMBL1208728, “Design, synthesis, and structure-activity relationships of pyrazole derivatives as potential FabH inhibitors” (Bioorg Med Chem Lett, 2010).

Converted amounts (≈) assume the structure as drawn.

The target in data set [1] is T1, 3-oxoacyl-[acyl-carrier-protein] synthase 3 (Escherichia coli, UniProt C3TDZ2).
T1 sequence (C3TDZ2 whole entry): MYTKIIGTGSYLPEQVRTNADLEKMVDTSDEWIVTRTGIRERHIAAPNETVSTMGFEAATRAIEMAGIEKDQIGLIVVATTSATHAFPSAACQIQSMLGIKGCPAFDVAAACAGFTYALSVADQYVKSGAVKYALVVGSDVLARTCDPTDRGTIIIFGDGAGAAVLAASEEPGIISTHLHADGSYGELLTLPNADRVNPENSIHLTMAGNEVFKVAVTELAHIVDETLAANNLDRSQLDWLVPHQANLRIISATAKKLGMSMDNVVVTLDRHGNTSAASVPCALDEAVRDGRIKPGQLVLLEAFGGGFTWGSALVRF
Description: Inhibition of Escherichia coli FabH.

The subject of another data set is Enterococcus faecalis. Kind of data set: Antimicrobial activity against Streptococcus faecalis ATCC 9790 by MTT assay. It is filed as functional.
For another data set, the system named is Bacillus subtilis. Kind of data set: Antimicrobial activity against Bacillus subtilis ATCC 6633 by MTT assay. It is filed as functional.
The subject of the next data set is Escherichia coli. Description: Antimicrobial activity against Escherichia coli ATCC 35218 by MTT assay. It is filed as functional.
A further data set has as its system Pseudomonas aeruginosa. Description: Antimicrobial activity against Pseudomonas aeruginosa ATCC 13525 by MTT assay. It is filed as functional.
Another data set has as its system Staphylococcus aureus. Description: Antimicrobial activity against Staphylococcus aureus ATCC 6538 by MTT assay. It counts as functional.
The nature of data set [2]: Toxicity against RBC assessed as hemolysis. It counts as cell-based. As to conditions: erythrocyte.
In another data set the test system is Enterobacter cloacae. Description: Antimicrobial activity against Enterobacter cloacae ATCC 13047 by MTT assay. It counts as functional.

`COc1ccc(C2=NN(C(C)=O)C(c3ccccc3)C2)cc1` (stereo unspecified): half-maximal inhibition in data set [1] (IC50) was put at 46.7 µM. In addition, the MIC against Enterococcus faecalis is 50 µg/mL (≈ 170 µM); against Bacillus subtilis it was 6.25 µg/mL (≈ 21.2 µM); in the data set on Escherichia coli, 25 µg/mL (≈ 84.9 µM); in the data set with Pseudomonas aeruginosa it was 12.5 µg/mL (≈ 42.5 µM); with Staphylococcus aureus, more than 50 µg/mL; against Enterobacter cloacae it was more than 50 µg/mL. For the same compound, the LC30 in data set [2] is more than 10000 µg/mL.
The compound `COc1ccc(C2=NN(C(C)=O)C(c3ccc(OC)cc3)C2)cc1` (stereo unspecified) showed a half-maximal inhibitory concentration (IC50) in data set [1] of 19.6 µM. Also, the minimum inhibitory concentration (MIC) in the data set on Enterococcus faecalis was 12.5 µg/mL (≈ 38.5 µM); in the data set on Bacillus subtilis, 6.25 µg/mL (≈ 19.3 µM); against Escherichia coli, 3.12 µg/mL (≈ 9.63 µM); against Pseudomonas aeruginosa, more than 50 µg/mL; with Staphylococcus aureus, 6.25 µg/mL (≈ 19.3 µM); with Enterobacter cloacae, 12.5 µg/mL (≈ 38.5 µM). In data set [2], the LC30 is more than 10000 µg/mL.
